Converted amounts (≈) assume the structure as drawn. The source made the active and inactive calls. The calls are words filed in the database; no cut-off is given here.
Key:
[1] = test system: Staphylococcus aureus; assay: Antibacterial activity against methicillin-resistant Staphylococcus aureus ATCC 43300 at 256 ug/ml after 24 hrs by disc diffusion method; type: functional, organism-based
[2] = test system: Staphylococcus aureus; assay: Antibacterial activity against methicillin-sensitive Staphylococcus aureus ATCC 25923 at 256 ug/ml after 24 hrs by disc diffusion method; type: functional, organism-based
[3] = test system: Staphylococcus aureus; assay: Antibacterial activity against methicillin-sensitive Staphylococcus aureus ATCC 25923 after 24 hrs by microdilution method; type: functional
[4] = test system: Staphylococcus aureus; assay: Antibacterial activity against methicillin-resistant Staphylococcus aureus ATCC 43300 at 30 ug/ml after 24 hrs by disc diffusion method; type: functional; conditions: ATCC 43300, 24 h, read-out: DIZ
[5] = test system: Staphylococcus aureus; assay: Antibacterial activity against methicillin-resistant Staphylococcus aureus ATCC 43300 after 24 hrs by microdilution method; type: functional
[6] = test system: Staphylococcus aureus; assay: Antibacterial activity against methicillin-sensitive Staphylococcus aureus ATCC 25923 at 30 ug/ml after 24 hrs by disc diffusion method; type: functional; conditions: ATCC 25923, 24 h, read-out: DIZ
[7] = test system: Staphylococcus aureus; assay: Antibacterial activity against methicillin-sensitive Staphylococcus aureus ATCC 25923 at 102.4 mg/ml after 24 hrs by disc diffusion method; type: functional; conditions: ATCC 25923, 24 h, read-out: DIZ
[8] = test system: Staphylococcus aureus; assay: Antibacterial activity against methicillin-resistant Staphylococcus aureus ATCC 43300 after 24 hrs by microdilution method in presence of non-beta lactam antibiotic ciprofloxacin; type: functional
[9] = test system: Staphylococcus aureus; assay: Antibacterial activity against methicillin-resistant Staphylococcus aureus ATCC 43300 at 102.4 mg/ml after 24 hrs by disc diffusion method; type: functional; conditions: ATCC 43300, 24 h, read-out: DIZ
[10] = test system: Staphylococcus aureus; assay: Antibacterial activity against methicillin-resistant Staphylococcus aureus ATCC 43300 after 24 hrs by microdilution method in presence of non-beta lactam antibiotic Doxycycline; type: functional
[11] = test system: Staphylococcus aureus; assay: Antibacterial activity against methicillin-sensitive Staphylococcus aureus ATCC 25923 after 24 hrs by microdilution method in presence of non-beta lactam antibiotic ciprofloxacin; type: functional
[12] = test system: Staphylococcus aureus; assay: Antibacterial activity against methicillin-resistant Staphylococcus aureus ATCC 43300 after 24 hrs by microdilution method in presence of non-beta lactam antibiotic gentamycin; type: functional
[13] = test system: Staphylococcus aureus; assay: Antibacterial activity against methicillin-sensitive Staphylococcus aureus ATCC 25923 after 24 hrs by microdilution method in presence of non-beta lactam antibiotic Doxycycline; type: functional
[14] = test system: Staphylococcus aureus; assay: Antibacterial activity against methicillin-sensitive Staphylococcus aureus ATCC 25923 after 24 hrs by microdilution method in presence of non-beta lactam antibiotic gentamycin; type: functional

Molecule | diameter of the inhibition zone (DIZ) [1] | diameter of the inhibition zone (DIZ) [2] | also measured
COc1cc(/C=C/C(=O)c2ccccc2O)cc(OC)c1OC | inactive | inactive | –
O=C(/C=C/c1ccc(Cl)cc1)c1ccccc1O | inactive | inactive | –
COc1ccc(C(=O)/C=C/c2ccccc2)c(O)c1 | inactive | inactive | –
C[C@H]1c2cccc(O)c2C(=O)C2=C(O)[C@]3(O)C(=O)C(C(N)=O)=C(O)[C@@H](N(C)C)[C@@H]3[C@@H](O)[C@@H]21.O [DOXYCYCLINE] | – | – | MIC ([3]; ATCC 25923, 24 h): 8 µg/mL; zone of inhibition at 30 µg/mL [4]: 27 mm; MIC ([5]; ATCC 43300, 24 h): 4 µg/mL; zone of inhibition at 30 µg/mL [6]: 27 mm
COc1ccc(C(=O)/C=C/c2ccc(OC)c(OC)c2)c(O)c1 | inactive | inactive | –
O=C(/C=C/c1ccccc1)c1ccccc1O | inactive | inactive | –
COc1ccc(C(=O)/C=C/c2ccc(Cl)cc2)c(O)c1 | inactive | inactive | –
COc1ccc(/C=C/C(=O)c2ccc(Br)cc2)cc1OC | inactive | inactive | –
GENTAMICIN | – | – | MIC [3]: 1 µg/mL; MIC [5]: 4 µg/mL
O=C(/C=C/c1ccccc1)c1ccc(Br)cc1 | inactive | inactive | –
O=C(N[C@H](CO)[C@H](O)c1ccc([N+](=O)[O-])cc1)C(Cl)Cl [CHLORAMPHENICOL] | – | – | zone of inhibition at 30 µg/mL [4]: 26 mm; zone of inhibition at 30 µg/mL [6]: 25 mm
COc1ccc2cc3[n+](cc2c1OC)CCc1cc2c(cc1-3)OCO2 [BERBERINE] | – | – | MIC ([5]; ATCC 43300, 24 h): 128 µg/mL
O=C(/C=C/c1ccc(O)cc1)c1ccccc1 [4-HYDROXYCHALCONE] | – | – | MIC ([3]; ATCC 25923, 24 h): 64 µg/mL (≈ 285 µM); zone of inhibition at 102400 µg/mL [7]: 10 mm; MIC ([5]; ATCC 43300, 24 h): 32 µg/mL (≈ 143 µM); fractional inhibitory concentration index (FICI) [8]: 0.25; zone of inhibition at 102400 µg/mL [9]: 9 mm; fractional inhibitory concentration index (FICI) [10]: 0.62; fractional inhibitory concentration index (FICI) [11]: 0.31
O=C(/C=C/c1ccccc1)c1ccccc1 | inactive | inactive | –
O=C(/C=C/c1ccccc1O)c1ccccc1O | – | – | fractional inhibitory concentration index (FICI) [12]: 0.5; MIC ([3]; ATCC 25923, 24 h): 64 µg/mL (≈ 266 µM); zone of inhibition at 102400 µg/mL [7]: 14 mm; fractional inhibitory concentration index (FICI) [13]: 0.25; MIC ([5]; ATCC 43300, 24 h): 64 µg/mL (≈ 266 µM); fractional inhibitory concentration index (FICI) [8]: 0.62; zone of inhibition at 102400 µg/mL [9]: 14 mm; fractional inhibitory concentration index (FICI) [10]: 0.15; fractional inhibitory concentration index (FICI) [11]: 1.5; fractional inhibitory concentration index (FICI) [14]: 0.36
COc1ccccc1/C=C/C(=O)c1ccc(Br)cc1 | inactive | inactive | –
COc1ccc(C(=O)/C=C/c2ccc(Cl)c(Cl)c2)c(O)c1 | inactive | inactive | –
COc1ccccc1/C=C/C(=O)c1ccccc1O | inactive | inactive | –
COc1ccc(/C=C/C(=O)c2ccc(Br)cc2)cc1 | inactive | inactive | –
